Measured values as given in ChEMBL document CHEMBL1134065, “Structure-Activity study of retinoid agonists bearing substituted dicarba-closo-dodecaborane. Relation between retinoidal activity and conformation of two aromatic nuclei” (2001).

Assays:
HL-60 [1] = assay: HL-60 differentiation-inducing activity at a dose of 10e-10 M; assay type: functional, Homo sapiens
HL-60 [2] = assay: HL-60 differentiation-inducing activity at a dose of 10e-8 M; assay type: functional, Homo sapiens
HL-60 [3] = assay: HL-60 differentiation-inducing activity at a dose of 10e-9 M; assay type: functional, Homo sapiens
HL-60 [4] = assay: HL-60 differentiation-inducing activity at a dose of 10e-9.5 M; assay type: functional, Homo sapiens
[5] = target: T1, Retinoic acid receptor gamma (Homo sapiens) (UniProt P13631); assay: Agonistic activity on Retinoic acid receptor gamma by transcriptional activation in COS-1 cells incubated at 10e-7 M; assay type: functional, cell-based
T1 sequence (whole entry): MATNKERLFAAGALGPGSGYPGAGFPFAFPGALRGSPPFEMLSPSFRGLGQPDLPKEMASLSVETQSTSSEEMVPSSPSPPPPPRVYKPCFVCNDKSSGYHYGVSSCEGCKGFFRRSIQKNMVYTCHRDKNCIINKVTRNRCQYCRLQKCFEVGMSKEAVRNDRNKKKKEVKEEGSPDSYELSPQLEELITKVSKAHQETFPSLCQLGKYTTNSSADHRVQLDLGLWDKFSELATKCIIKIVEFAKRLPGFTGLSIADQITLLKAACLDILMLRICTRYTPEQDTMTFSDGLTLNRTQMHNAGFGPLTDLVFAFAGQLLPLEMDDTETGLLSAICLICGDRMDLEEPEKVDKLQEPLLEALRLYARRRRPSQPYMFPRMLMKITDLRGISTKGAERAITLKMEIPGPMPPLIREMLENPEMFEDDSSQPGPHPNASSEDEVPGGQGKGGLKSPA

[6] = target: T1, Retinoic acid receptor gamma (Homo sapiens); assay: Agonistic activity on Retinoic acid receptor gamma by transcriptional activation in COS-1 cells incubated at 10e-8 M; assay type: functional, cell-based
[7] = target: T1, Retinoic acid receptor gamma (Homo sapiens); assay: Agonistic activity on Retinoic acid receptor gamma by transcriptional activation in COS-1 cells incubated at 10e-6 M; assay type: functional, cell-based
[8] = target: T1, Retinoic acid receptor gamma (Homo sapiens); assay: Agonistic activity on Retinoic acid receptor gamma by transcriptional activation in COS-1 cells incubated at 10e-9 M; assay type: functional, cell-based
HL-60 [9] = assay: HL-60 differentiation-inducing activity at a dose of 10e-7 M; assay type: functional, Homo sapiens

| Relative luciferase response [5] | Relative luciferase response [6] | Relative luciferase response [7] | Relative luciferase response [8] | SMILES | Differentiated cells (HL-60 [1]) [%] | Differentiated cells (HL-60 [2]) [%] | Differentiated cells (HL-60 [3]) [%] | Differentiated cells (HL-60 [4]) [%] | Differentiated cells (HL-60 [9]) [%] |
| --- | --- | --- | --- | --- | --- | --- | --- | --- | --- |
| – | – | – | – | CC1(C)CCC(C)(C)c2cc(NC(=O)c3ccc(C(=O)O)cc3)ccc21 [TAMIBAROTENE] | ~5 | ~85 | ~75 | ~40 | – |
| 14 | 12 | 30 | 6 | CC1=C(/C=C/C(C)=C/C=C/C(C)=C/C(=O)O)C(C)(C)CCC1 [TRETINOIN] | – | ~70 | ~2 | – | ~85 |
